# Measured values: patent US20040033902A1, “Diphenyl ehter induction systemic resistance in plants” (priority 2002, published 2004)
# Columns and labels:
# [1] = tested on: snapped cotyledons of Williams variety soybean; test: Snapped cotyledon assay, isoflavone and glyceollin induction, HPLC (Example 4); assay type: cell-based; conditions: 7 day old Williams soybean, average of two experiments; for Glyceollin Induction: 48 h, tested 10 uM to 1 mM alone and with 30 ug/ml glucan elicitor from Phytophthora sojae, concentration not given; for Total Isoflavone Induction: 48 h constant light, tested 10 uM to 1 mM, concentration of the printed value not stated, standard error less than 15%
# Method: The snapped cotyledon assay is a minimal wound assay used to investigate the effects of test compounds in a non-primed background. The assay is performed by snapping cotyledons in two and placing the petiole side down in 0.5% water agar. Ten snapped cotyledons are used per treatment, and the subepidermal cells exposed by snapping are treated with glucan defense elicitor and/or the effector (i.e., diphenyl ether) being examined. The cotyledons are incubated in the light for 48 h as in the cut cotyledon assay. Both proximal (first cell layer) and distal (second and third cell layers) are harvested for analysis by HPLC (see below). Full details of this assay can be found in the publication: Graham, T. L. and Graham, M. Y. 1996. Signaling in soybean phenylpropanoid responses: dissection of primary, secondary and conditioning effects of light, wounding and elicitor treatments. Plant Physiol. 110:1123-1133.
# The snapped cotyledon assay is “naive.” That is, it is not pre-disposed or primed for competency for the elicitation of phytoalexin glyceollin in response to the glucan elicitor. Thus, treatment with the glucan elicitor induces the formation of the isoflavones daidzein and genistein, but very little glyceollin. This is an excellent assay to study the effects of a chemical treatment on isoflavone metabolism by itself or in combination with the glucan. In the absence of the glucan, it gives an excellent picture of the effects of the compound alone on isoflavone metabolism. In the presence of the glucan, it tells us if the test compound can induce elicitation competency for the glyceollin response to the glucan.
# High performance liquid chromatography (HPLC) is the method of choice for determining the levels of isoflavone defense compounds in soybean. With a single HPLC analysis, one gets a complete and quantitative profile of up to 50 or more aromatic compounds, including all the isoflavones and their conjugates and the phytoalexins, including glyceollin. As little as 20 mg of plant tissue is needed and the method can be readily applied to cotyledon, leaf or any soybean tissue. This analytical method allows us to determine the nmoles/g of each metabolite, which can then readily be processed to compare the percent increase or decrease of a given metabolite in comparison to either water or glucan-treated control tissues. Routinely, tissues are extracted in 80% ethanol and subjected to water/acetonitrile gradient elution from a C18 reverse phase HPLC column. Full details of this procedure can be found in the publication: Graham, T. L. 1991. A Rapid, High Resolution High Performance Liquid Chromatography Profiling Procedure for Plant and Microbial Aromatic Secondary Metabolites. Plant Physiol. 95:584-593. […]
# [2] = tested on: cut cotyledons (Williams cotyledons); test: Cut cotyledon assay, isoflavones (Williams cotyledons); assay type: cell-based, soybean; conditions: 50-500 uM
# Method: The cut cotyledon assay is used to investigate both the ability of a compound (effector) to activate basal elicitation competency in plants, and to evaluate the ability of a secondary compound (elicitor) to enhance glyceollin elicitation competency in plants in which the isoflavone pools were “loaded” by the action of the effector.
# The level of isoflavones in the cotyledon tissues are measured after the addition of different diphenyl ethers to determine the effectiveness of each in inducing the basal production of isoflavones in cotyledon tissues (effector studies). In the elicitor studies, the addition of diphenyl ether first “primes” the cut cotyledon. […] Thus, the ability of a compound to enhance glyceollin elicitation competency by “loading” the isoflavone pools can also be measured.
# Cotyledons from 7-8 day old soybean seedlings are removed from the plant and cut on the lower surface to expose subepidermal tissues. […] Tissues are analyzed by HPLC as noted below. […]
# High performance liquid chromatography (HPLC) is the method of choice for determining the levels of isoflavone defense compounds in soybean. With a single HPLC analysis, one gets a complete and quantitative profile of up to 50 or more aromatic compounds, including all the isoflavones and their conjugates and the phytoalexins, including glyceollin. […]
Structure (SMILES),Glyceollin Induction [1],Total Isoflavone Induction [1],range of increase of isoflavones over the concentration range [2]
"O=C(O)c1cc(Oc2ccc(C(F)(F)F)cc2Cl)ccc1[N+](=O)[O-] [Acifluorfen, acifluorfen]",+122%,+56%,–
N[C@@H](Cc1cc(I)c(Oc2cc(I)c(O)c(I)c2)c(I)c1)C(=O)O [thyroxine],–,–,20-40%
"CS(=O)(=O)NC(=O)c1cc(Oc2ccc(C(F)(F)F)cc2Cl)ccc1[N+](=O)[O-] [Fomesafen, fomesafen]",+233%,+85%,–
